Measurements reported in article PMC11871066, “Structure-based discovery of hydrocarbon-stapled paxillin peptides that block FAK scaffolding in cancer” (Nature Communications, 2025).
pEC50, pIC50: −log10 of the molar value. Where two headings read alike, the source gives them in different places. Bridge positions count the residues as written; N and C are the ends. Square brackets hold non-standard residues; d marks the D form. Peptide text beside a SMILES is read from it. * marks the point of attachment. Myristoyl = CCCCCCCCCCCCCC(=O)*; R8 = C=CCCCCCC[C@@](C)(N)C(=O)O; S5 = C=CCCC[C@](C)(N)C(=O)O

How the values were obtained:
SK-MEL-147 cells [1] = assay: RealTime-Glo Annexin V apoptosis assay; assay type: cell-based, human; conditions: for induction of apoptosis, time-course: every 24 h over 96 h
Procedure: SK-MEL-147 cells were seeded at 1000 cells/well in 384-well white-walled, clear-bottom plates (Corning). Cells were allowed to adhere overnight. Serial twofold dilutions of drugs were prepared starting at 200 μM. Immediately after adding the drug treatments, 2X RealTime-Glo™ Annexin V Apoptosis detection reagent (Promega) was added. Replicates were also included for the following controls: “no-cell” (negative), vehicle-only controls (negative), and cisplatin (5 μM, positive). […] Dose-response curves and EC50 curves were obtained using GraphPad Prism (version 10.3.1), reporting mean luminescence relative to DMSO ± SD. A minimum of 5 independent biological runs (n = 5) were performed per treatment group. […]
manner via Annexin V apopt osi s ti me -course study. SK -MEL- 147 cells treated with ( a) 2012, (b) 2 0 20, and (c) defactinib are evaluated for apoptosis using RealTime- Glo system for Annexin V binding. EC50 curves representing data obtained every 24 hours, over the course of 96 hours total. EC50 cur ves f it us i ng GraphPad Prism reporting mean ± SD of (a) 7 biological replicates (n=7); (b) 5 biological replicates (n =5); and (c) 5 biological replicates (n =5). Source data are provided as Source Data files.

ONDA7 cells = assay: cells; assay type: cell-based, human; conditions: 96 h
Procedure: (§1) Cells were seeded at 1000 cells per well in white-walled, clear bottom 96-well plates and allowed to adhere in the incubator for 24 h. […] Treatment doses were created in a 12-or 10-point, twofold serial dilution, starting at 200 μM. After 24 h of treatment, 10% FBS was spiked back into each well and the plate returned to 37 °C […]. After 96 h of drug treatment, the Promega 2D CellTiter-Glo reagent was added to each well at a 1:2 ratio of reagent to treatment media. […] This assay was performed a minimum of 3 (n = 3) times for each cell line, with each run containing a minimum of 3 technical replicates per run. IC50 curves were generated using GraphPad Prism (version 10.3.1), reporting the mean % viability relative to DMSO ± SD.

WM88 cells = assay: cells; assay type: cell-based, human; conditions: 96 h
Procedure: as §1

LX-2 cells = assay: cells; assay type: cell-based, human; conditions: 96 h
Procedure: as §1

Hep-G2 cells = assay: cells; assay type: cell-based, human; conditions: 96 h
Procedure: as §1

SK-MEL-147 cells [2] = assay: cells; assay type: cell-based, human; conditions: 96 h
Procedure: as §1

NHEM cells = assay: cells; assay type: cell-based, human; conditions: 96 h
Procedure: as §1

SK-MEL-147 cells [3] = assay: Transwell invasion assay; assay type: cell-based, human
Procedure: SK-MEL-147 cells were seeded at 400,000 cells/well in six-well plates and allowed to adhere in the incubator overnight. Cells were pretreated with drugs ranging from 200–0.01 μM, and incubated for 48 h. Subsequently, 8.0 μm PET membrane cell culture inserts (Falcon) were coated with 40 μL of 0.3 mg/mL Matrigel (Corning) diluted in serum-free media and incubated at 37 °C/5% CO2 for 5 h to allow the solution to gel. Unbound Matrigel was removed from the inserts, and membranes were rehydrated with serum-containing media for an additional hour. Treated cells were then trypsinized, collected by centrifugation, washed with DPBS, and resuspended in serum-free media. About 50,000 cells per treatment group were seeded into upper chambers with additional serum-free media. 10% FBS-containing media was placed into bottom chambers as a chemoattractant. After 24 h, inserts were then stained with crystal violet (Sigma-Aldrich) and washed with DPBS. Using an ECHO Revolve microscope, bright field images of 6 fields of view for each insert were taken at 10x magnification. The number of invaded cells in each image was quantified using ImageJ (version 1.52a). Bar graphs, dose-response curves, and IC50 values were established using GraphPad Prism (version 10.3.1), reporting the mean number of invaded cells relative to DMSO ± SD.
Transwell invasion assay. Representative brightfield images of invaded SK -MEL- 147 cells on transwell inserts at 10X magnification following peptide treatment. Images show invaded cells after treatment with various concentrations of 2020 (top panel), 2012 (middle panel), and defactinib (bottom panel), in addition to DMSO vehicle-control (left, top panel) and ad- FRNK positive control (left, bottom panel). Bar graphs reveal m ean number of invaded cells ± SD and calculated IC50 values across all dos e s of 2020 (left graph, n=2), 2012 (middle graph, n=6), and defactinib (right graph, n=4 ). All values for ‘n’ represent independent biological replicates. One -way ANOVA analyses and Dunnet’s multiple comparison tests were performed

[4] = biological target: 97 kinases (kinase named in endpoint) (Homo sapiens, UniProt P30530); assay: Eurofins KINOMEscan profiling, 97 kinases; conditions: read-out: % Ctrl, AXL
[5] = biological target: 97 kinases (kinase named in endpoint) (Homo sapiens, UniProt Q15759); assay: Eurofins KINOMEscan profiling, 97 kinases; conditions: read-out: % Ctrl, p38-beta
Chain of 97 kinases (kinase named in endpoint) (Homo sapiens, UniProt Q15759) (Q15759 whole entry): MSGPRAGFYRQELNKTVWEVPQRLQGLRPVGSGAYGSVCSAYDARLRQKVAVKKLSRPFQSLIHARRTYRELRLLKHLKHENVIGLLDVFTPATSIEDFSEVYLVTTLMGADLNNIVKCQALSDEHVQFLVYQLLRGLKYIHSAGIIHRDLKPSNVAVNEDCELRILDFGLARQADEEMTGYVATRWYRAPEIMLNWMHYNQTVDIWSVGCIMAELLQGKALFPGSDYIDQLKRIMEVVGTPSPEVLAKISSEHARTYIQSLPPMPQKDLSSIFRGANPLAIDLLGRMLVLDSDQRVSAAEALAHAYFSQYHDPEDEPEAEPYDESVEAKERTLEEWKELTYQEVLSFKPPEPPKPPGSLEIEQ

[6] = biological target: 97 kinases (kinase named in endpoint) (Homo sapiens, UniProt O15075); assay: Eurofins KINOMEscan profiling, 97 kinases; conditions: read-out: % Ctrl, DCAMKL1
Chain of 97 kinases (kinase named in endpoint) (Homo sapiens, UniProt O15075) (O15075 whole entry): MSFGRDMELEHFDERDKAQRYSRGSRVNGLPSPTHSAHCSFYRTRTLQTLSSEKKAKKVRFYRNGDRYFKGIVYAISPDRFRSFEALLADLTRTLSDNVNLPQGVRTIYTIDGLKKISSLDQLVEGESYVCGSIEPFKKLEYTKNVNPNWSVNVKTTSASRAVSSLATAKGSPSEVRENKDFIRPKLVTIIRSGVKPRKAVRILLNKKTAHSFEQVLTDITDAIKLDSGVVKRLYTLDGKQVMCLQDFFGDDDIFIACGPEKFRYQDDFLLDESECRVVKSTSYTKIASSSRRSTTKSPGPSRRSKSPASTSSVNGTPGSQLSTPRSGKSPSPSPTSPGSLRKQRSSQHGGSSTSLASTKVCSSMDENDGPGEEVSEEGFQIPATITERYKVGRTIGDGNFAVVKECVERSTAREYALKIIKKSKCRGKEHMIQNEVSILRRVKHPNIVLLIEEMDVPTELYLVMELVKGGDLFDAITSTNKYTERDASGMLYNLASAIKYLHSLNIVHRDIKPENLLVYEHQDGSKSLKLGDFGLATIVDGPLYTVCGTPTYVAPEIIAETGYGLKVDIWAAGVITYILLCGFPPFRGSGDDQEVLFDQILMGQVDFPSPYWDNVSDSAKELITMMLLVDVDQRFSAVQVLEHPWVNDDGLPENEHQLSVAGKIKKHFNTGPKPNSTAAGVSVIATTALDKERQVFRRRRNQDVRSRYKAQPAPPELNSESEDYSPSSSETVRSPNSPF

[7] = biological target: 97 kinases (kinase named in endpoint) (Homo sapiens, UniProt Q9HBH9); assay: Eurofins KINOMEscan profiling, 97 kinases; conditions: read-out: % Ctrl, MKNK2
[8] = biological target: 97 kinases (kinase named in endpoint) (Homo sapiens, UniProt P09619); assay: Eurofins KINOMEscan profiling, 97 kinases; conditions: read-out: % Ctrl, PDGFRB
Chain of 97 kinases (kinase named in endpoint) (Homo sapiens, UniProt P09619) (P09619 33-1106): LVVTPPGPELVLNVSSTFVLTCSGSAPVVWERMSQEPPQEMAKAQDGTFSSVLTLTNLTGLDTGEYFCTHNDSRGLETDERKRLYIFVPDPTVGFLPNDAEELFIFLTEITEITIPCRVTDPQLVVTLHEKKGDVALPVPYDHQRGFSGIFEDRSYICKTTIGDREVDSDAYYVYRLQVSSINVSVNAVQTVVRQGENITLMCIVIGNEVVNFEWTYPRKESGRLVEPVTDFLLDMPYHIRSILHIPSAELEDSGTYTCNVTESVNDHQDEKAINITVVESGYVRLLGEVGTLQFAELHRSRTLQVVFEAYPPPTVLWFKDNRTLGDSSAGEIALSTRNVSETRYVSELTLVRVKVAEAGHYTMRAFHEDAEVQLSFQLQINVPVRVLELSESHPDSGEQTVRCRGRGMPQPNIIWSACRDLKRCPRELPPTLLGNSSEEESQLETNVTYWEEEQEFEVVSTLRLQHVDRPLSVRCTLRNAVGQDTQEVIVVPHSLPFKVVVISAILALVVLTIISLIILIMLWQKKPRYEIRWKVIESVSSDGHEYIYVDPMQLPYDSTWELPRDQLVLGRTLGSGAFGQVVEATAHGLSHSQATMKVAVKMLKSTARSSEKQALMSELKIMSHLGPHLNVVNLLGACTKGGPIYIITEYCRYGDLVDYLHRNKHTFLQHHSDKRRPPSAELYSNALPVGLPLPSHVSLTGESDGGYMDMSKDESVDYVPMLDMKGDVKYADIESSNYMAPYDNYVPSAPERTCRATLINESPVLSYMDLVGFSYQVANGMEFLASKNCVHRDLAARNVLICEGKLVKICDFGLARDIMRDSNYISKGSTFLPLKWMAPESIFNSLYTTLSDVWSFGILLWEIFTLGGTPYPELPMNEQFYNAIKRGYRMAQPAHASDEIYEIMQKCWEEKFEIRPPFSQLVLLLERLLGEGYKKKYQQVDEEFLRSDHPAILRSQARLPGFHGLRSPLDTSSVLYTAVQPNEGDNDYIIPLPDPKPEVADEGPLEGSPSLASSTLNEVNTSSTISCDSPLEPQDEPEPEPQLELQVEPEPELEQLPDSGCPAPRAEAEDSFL

[9] = biological target: 97 kinases (kinase named in endpoint) (Homo sapiens, UniProt Q9BWU1); assay: Eurofins KINOMEscan profiling, 97 kinases; conditions: read-out: % Ctrl, CDK11
Chain of 97 kinases (kinase named in endpoint) (Homo sapiens, UniProt Q9BWU1) (Q9BWU1 whole entry): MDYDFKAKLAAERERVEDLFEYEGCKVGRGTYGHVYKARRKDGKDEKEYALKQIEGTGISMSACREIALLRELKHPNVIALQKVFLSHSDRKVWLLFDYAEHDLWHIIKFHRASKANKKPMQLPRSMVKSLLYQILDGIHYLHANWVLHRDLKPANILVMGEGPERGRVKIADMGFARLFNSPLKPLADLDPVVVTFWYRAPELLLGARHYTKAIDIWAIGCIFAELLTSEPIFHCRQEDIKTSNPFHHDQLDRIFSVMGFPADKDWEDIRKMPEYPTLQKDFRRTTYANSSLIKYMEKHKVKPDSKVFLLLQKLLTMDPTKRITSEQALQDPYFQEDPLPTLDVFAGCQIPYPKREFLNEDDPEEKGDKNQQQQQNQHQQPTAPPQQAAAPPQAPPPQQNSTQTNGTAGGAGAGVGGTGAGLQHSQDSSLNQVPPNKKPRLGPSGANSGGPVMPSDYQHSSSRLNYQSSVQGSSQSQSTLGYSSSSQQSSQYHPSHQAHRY

[10] = biological target: 97 kinases (kinase named in endpoint) (Homo sapiens, UniProt O14757); assay: Eurofins KINOMEscan profiling, 97 kinases; conditions: read-out: % Ctrl, CHEK1
Chain of 97 kinases (kinase named in endpoint) (Homo sapiens, UniProt O14757) (O14757 whole entry): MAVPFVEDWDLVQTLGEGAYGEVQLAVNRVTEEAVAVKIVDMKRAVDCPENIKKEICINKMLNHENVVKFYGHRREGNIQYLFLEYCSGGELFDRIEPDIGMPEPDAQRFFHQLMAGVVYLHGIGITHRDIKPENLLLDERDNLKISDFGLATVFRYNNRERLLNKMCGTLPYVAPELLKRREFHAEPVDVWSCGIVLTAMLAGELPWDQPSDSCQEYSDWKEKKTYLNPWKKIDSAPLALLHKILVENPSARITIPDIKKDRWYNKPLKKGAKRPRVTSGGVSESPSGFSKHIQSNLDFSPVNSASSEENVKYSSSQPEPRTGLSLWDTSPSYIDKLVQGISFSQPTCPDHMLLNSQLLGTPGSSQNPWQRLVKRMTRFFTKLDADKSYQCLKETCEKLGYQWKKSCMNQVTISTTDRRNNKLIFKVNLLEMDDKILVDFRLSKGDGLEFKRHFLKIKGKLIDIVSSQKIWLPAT

[11] = biological target: 97 kinases (kinase named in endpoint) (Homo sapiens, UniProt P06213); assay: Eurofins KINOMEscan profiling, 97 kinases; conditions: read-out: % Ctrl, INSR
Chain of 97 kinases (kinase named in endpoint) (Homo sapiens, UniProt P06213) (P06213 28-1382): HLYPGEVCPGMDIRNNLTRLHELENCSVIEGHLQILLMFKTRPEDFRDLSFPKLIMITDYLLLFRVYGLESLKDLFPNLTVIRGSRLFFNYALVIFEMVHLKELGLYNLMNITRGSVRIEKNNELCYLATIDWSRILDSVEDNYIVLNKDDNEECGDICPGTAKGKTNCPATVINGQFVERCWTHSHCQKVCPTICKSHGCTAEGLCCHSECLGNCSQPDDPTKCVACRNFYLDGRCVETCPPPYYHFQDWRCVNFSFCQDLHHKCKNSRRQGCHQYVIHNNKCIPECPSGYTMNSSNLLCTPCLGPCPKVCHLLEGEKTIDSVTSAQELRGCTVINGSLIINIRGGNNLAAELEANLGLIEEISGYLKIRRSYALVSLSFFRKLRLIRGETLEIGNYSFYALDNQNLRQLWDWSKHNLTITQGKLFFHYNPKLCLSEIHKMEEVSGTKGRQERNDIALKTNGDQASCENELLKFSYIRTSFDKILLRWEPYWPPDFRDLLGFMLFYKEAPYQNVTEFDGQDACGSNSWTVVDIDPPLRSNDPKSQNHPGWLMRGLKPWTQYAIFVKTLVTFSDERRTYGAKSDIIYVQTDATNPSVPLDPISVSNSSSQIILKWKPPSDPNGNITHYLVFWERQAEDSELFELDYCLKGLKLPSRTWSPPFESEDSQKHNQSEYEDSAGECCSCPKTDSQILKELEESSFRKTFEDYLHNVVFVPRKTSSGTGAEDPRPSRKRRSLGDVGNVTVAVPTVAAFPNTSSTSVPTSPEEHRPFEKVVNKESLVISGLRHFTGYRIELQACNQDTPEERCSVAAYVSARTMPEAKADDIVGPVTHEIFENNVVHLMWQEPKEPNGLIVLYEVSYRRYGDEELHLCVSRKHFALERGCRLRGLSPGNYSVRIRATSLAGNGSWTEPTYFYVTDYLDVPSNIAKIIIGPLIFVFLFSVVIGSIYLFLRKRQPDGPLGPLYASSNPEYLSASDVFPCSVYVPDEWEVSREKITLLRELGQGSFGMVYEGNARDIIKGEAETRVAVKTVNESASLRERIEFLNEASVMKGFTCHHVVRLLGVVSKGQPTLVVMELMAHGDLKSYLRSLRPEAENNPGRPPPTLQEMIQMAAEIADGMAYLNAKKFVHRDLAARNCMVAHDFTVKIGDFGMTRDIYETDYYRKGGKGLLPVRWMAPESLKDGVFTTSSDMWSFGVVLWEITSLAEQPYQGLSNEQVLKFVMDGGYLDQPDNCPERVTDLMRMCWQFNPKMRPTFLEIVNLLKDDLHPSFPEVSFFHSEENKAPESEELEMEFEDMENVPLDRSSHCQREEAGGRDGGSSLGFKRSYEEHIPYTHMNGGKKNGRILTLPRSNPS

[12] = biological target: 97 kinases (kinase named in endpoint) (Homo sapiens, UniProt Q86V86); assay: Eurofins KINOMEscan profiling, 97 kinases; conditions: read-out: % Ctrl, PIM3
[13] = Homo sapiens, average of n >= 3, read-out: cell viability IC50

Row | Compound | pIC50 (ONDA7 cells) | pIC50 (WM88 cells) | pIC50 (LX-2 cells) | pIC50 (Hep-G2 cells) | pIC50 (SK-MEL-147 cells [2]) | pIC50 (NHEM cells) | remaining binding at 1 µM [4] [%] | remaining binding at 1 µM [5] [%] | remaining binding at 1 µM [6] [%] | remaining binding at 1 µM [7] [%] | remaining binding at 1 µM [8] [%] | remaining binding at 1 µM [9] [%] | remaining binding at 1 µM [10] [%] | remaining binding at 1 µM [11] [%] | remaining binding at 1 µM [12] [%] | induction of apoptosis, time-course (SK-MEL-147 cells [1]) | further results
1 | CCCCCCCCCCCCCC(=O)N[C@@H](CC(N)=O)C(=O)N[C@@H](CC(C)C)C(=O)N[C@]1(C)CCCCCCC=CCCC[C@@](C)(C(=O)N[C@@H](CCC(=O)O)C(=O)N[C@@H](CC(C)C)C(=O)N[C@@H](CC(N)=O)C(N)=O)NC(=O)[C@H](CC(C)C)NC(=O)[C@H](CC(C)C)NC(=O)[C@H](CCCNC(=N)N)NC(=O)[C@H](CC(=O)O)NC(=O)[C@H](CC(C)C)NC(=O)[C@H](CCC(=O)O)NC1=O [compound 2012] | 5.01 | 5.35 | < 3.70 | < 3.70 | 5.63 | < 3.70 | 74 | 98 | 86 | 100 | 94 | 87 | 98 | 100 | 100 | – | pEC50 (SK-MEL-147 cells [1]; 96 h): 5.08; pIC50 (SK-MEL-147 cells [3]; 48 h treatment): 5.74
2 | CCCCCCCCCCCCCC(=O)N[C@@H](CC(N)=O)C(=O)N[C@@H](CC(C)C)C(=O)N[C@]1(C)CCCCCCC=CCCC[C@@](C)(C(=O)N[C@@H](CCC(=O)O)C(=O)N[C@@H](CCC(=O)O)C(=O)N[C@@H](CC(N)=O)C(N)=O)NC(=O)[C@H](CC(C)C)NC(=O)[C@H](CC(C)C)NC(=O)[C@H](CCCNC(=N)N)NC(=O)[C@H](CC(=O)O)NC(=O)[C@H](CCC(=O)O)NC(=O)[C@H](CCC(=O)O)NC1=O [compound 2020] (Myristoyl-NL[R8]EEDRLL[S5]EEN-NH2; staple 3-10) | < 3.70 | < 3.70 | < 3.70 | < 3.70 | < 3.70 | < 3.70 | – | – | – | – | – | – | – | – | – | no effect at any timepoint | invasion IC50 (SK-MEL-147 cells [3]; 48 h treatment): no effect
3 | CNC(=O)c1ccc(Nc2ncc(C(F)(F)F)c(NCc3nccnc3N(C)S(C)(=O)=O)n2)cc1 [defactinib] | – | – | – | – | – | – | 3.6 | 89 | 47 | 100 | 18 | 97 | 99 | 61 | 40 | no effect at any timepoint | Annexin V apoptosis EC50 (SK-MEL-147 cells [1]; 96 h): did not exhibit a dose-dependent effect; pIC50 (ONDA7 cells; [13]): 4.72; pIC50 (WM88 cells; [13]): 4.67; pIC50 (LX-2 cells; Homo sapiens, LX-2, average of n >= 3, read-out: cell viability IC50): 5.66; pIC50 (Hep-G2 cells; Homo sapiens, HepG2, average of n >= 3, read-out: cell viability IC50): 4.17; pIC50 (SK-MEL-147 cells [2]; Homo sapiens, SK-MEL-147, average of n >= 3, read-out: cell viability IC50): 5.55; pIC50 (NHEM cells; [13]): < 3.70; percentage of invaded cells (SK-MEL-147 cells [3]; 2.5 µM): 0%
